Patent publication US20240382473A1, “Combination Therapies for Treatment of Myelodysplastic Syndrome” (priority 2019, published 2024)
pIC50: −log10 of the molar value.

Tests used:
MDS BMMC's = assay: Cell viability following 48 hours treatment (FIGS. 26A/26B; IC50 in MDS BMMC's); assay type: cell-based
Excerpt: Additionally, an assay has been tested in bone marrow mononuclear cells (BMMCs) from AML and MDS patients to examine MCL-1 dependency prior to therapy with alvocidib. […] Combination studies are currently under investigation to determine whether enhanced anti-cancer activity is observed through pharmacologic downregulation of MCL-1 via CDK9 inhibition by alvocidib and upregulation of the MCL-1 antagonist NOXA after HMA exposure.
FIGS. 26A and 26B are scatter plots showing cell viability following 48 hours treatment at indicated concentrations of azacytidine (alone) or alvocidib (alone). FIG. 26A is a plot of cell viability following 48-hour treatment against indicated concentrations of azacitidine. […] FIG. 26B is a plot of cell viability following 48-hour treatment against indicated concentrations of alvocidib.

[1] = test system: NOXA and MCL-1 expression in CD34+ MDS BMMNC; assay: Pharmacodynamic marker study, Western blot NOXA/MCL-1 in CD34+ MDS BMMNC; assay type: cell-based, human; conditions: Patient 0219; azacitidine 0.3 or 0.6 μM 24 hours, then alvocidib 0.1 μM 6 hours
Experimental: A pharmacodynamic maker study was performed for azaditidine and alvocidib using MDS patient-derived BMMNC from Cureline. CD34^+ cells were isolated by CD34 MicroBead Kit (Miltenyi Biotec) and cultured in StemSpan™ SFEM II with StemSpan™ CD34^+ Expansion Supplement (STEMCELL Technologies). […] Protein was extracted using RIPA buffer with protease and phosphatase inhibitor cocktail. Protein expression was assessed by Western blot using NOXA (CST, Cat #14766S), MCL-1(CST, Cat #392245) and β-actin (CST, Cat #4967L) antibodies. Apoptotic activity was assessed by Caspase-Glo® 3/7 assay (Promega).

CD34+ MDS BMMNC [2] = assay: Caspase-Glo 3/7 apoptotic activity in CD34+ MDS BMMNC (Example 16); assay type: cell-based, human; conditions: then DMSO or alvocidib 0.1 μM 6 hours
Experimental: A pharmacodynamic maker study was performed for azaditidine and alvocidib using MDS patient-derived BMMNC from Cureline. CD34^+ cells were isolated by CD34 MicroBead Kit (Miltenyi Biotec) and cultured in StemSpan™ SFEM II with StemSpan™ CD34^+ Expansion Supplement ([…] Technologies). Cells were seeded in 6-well plates and treated with DMSO or azacitidine (0.3 or 0.6 μM) for 24 hours. Following that, DMSO or alvocidib (0.1 μM) was sequentially added, and the cells were incubated for an additional 6 hours. Protein was extracted using RIPA buffer with protease and phosphatase inhibitor cocktail. Protein expression was assessed by Western blot using NOXA (CST, Cat #14766S), MCL-1(CST, Cat #392245) and β-actin (CST, Cat #4967L) antibodies. Apoptotic activity was assessed by Caspase-Glo® 3/7 assay (Promega).

MV-4-11 cells = assay: MCL-1 dependency assay (T-MS1, Dioc6) in MV-4-11 cells; assay type: cell-based; conditions: for MCL-1 dependency versus DMSO controls: 24 hours
[3] = test system: NOXA expression in MV-4-11 AML cells / MOLM13 cells; assay: Western blot for NOXA expression in AML cell lines treated with HMAs; assay type: cell-based
Experimental: (§1) In the decitabine experiments (FIGS. 24 and 36), the MV-4-11 AML cell line and MOLM13 cell line model for secondary AML (prior MDS) were used. MV-4-11 AML cells (or MOLM13 cells as indicated) were treated with indicated concentrations of decitabine for indicated times, and protein was assessed by Western blot for NOXA expression. […] FIGS. 24A and 24C are Western blots and FIG. 24B is a bar graph of mRNA concentrations. […] The Western blot was prepared from a MOLM13 xenograft treated with decitabine at 1 mg/kg IP for 24 hours.
In the azacitidine experiments (FIG. 25), MV-4-11 AML cells were treated with indicated concentrations of azacitidine for 24 hours and protein assessed by Western blot for NOXA expression.

[4] = test system: MDS patient-derived BMMCs (blasts); assay: T-MS1 based MCL-1 dependency assay on MDS patient blasts; assay type: cell-based, human
Experimental: To determine the patients' cells' dependency on MCL-1 anti-apoptotic protein for survival, the MCL-1 binding protein, MS I with N-terminal modifications for improved cell penetrance was utilized. The modified peptide is referred to as T-MS1. When added to cells, T-MS1 crosses the plasma membrane and antagonizes MCL-I, leading to mitochondrial outer membrane […] (MOMP) formation and subsequently, depolarization of the mitochondria. Mitochondrial potential was assessed using the cationic dye, DiOC2(3), which accumulates in negatively-charged, healthy mitochondria. Fresh or previously frozen MDS bone marrow cells were treated with azacitidine or DMSO control in media containing RPMI+10% FBS+pen/strep for 48 hours prior to being interrogated with T-MS1. After blocking and staining with antibody cocktail to gate on MDS blasts, T-MS1 was added and cells were incubated for 30 minutes at 37° C. After T-MS1 treatment, cells were washed and stained with cationic dye, Dioc6, for 90 minutes to assess mitochondrial depolarization via flow cytometric analysis. Priming % was calculated using the formula: […]
For concordance with prior priming values, an additional calibration factor of 1.6 was applied to patient priming values.
To determine the patients' cells' MCL-1 dependency following treatment with azacitidine, MDS patient-derived BMMCs were treated with DMSO, 0.3 μM azacitidine, 1 μM azacitidine or 2.5 μM azacitidine for 48-72 hours before being assessed by the MCL-1 dependency assay.

CD34+ MDS BMMNC [5] = assay: Caspase-Glo 3/7 apoptotic activity in CD34+ MDS BMMNC (Example 17 efficacy study); assay type: cell-based, human; conditions: azacitidine 100 nM 24 hours, alvocidib 100 nM 24 hours
Experimental: CD34^+ cells were isolated by CD34 MicroBead Kit (Miltenyi Biotec) and cultured in StemSpan™ SFEM II with StemSpan™ CD34^+ Expansion Supplement (STEMCELL Technologies). […] Apoptotic activity was assessed by Caspase-Glo® 3/7 assay (Promega).

MOLM13 xenograft model = assay: MOLM13 xenograft model, tumor volume and survival; assay type: in vivo; conditions: aggressive daily dosing, tumor bearing mice
Experimental: FIGS. 31A and 31B show results from sequential dosing of alvocidib and HMAs in a MOLM13 model for MDS/sAML. HMA dosing sensitized AML cells to sequential dosing and improved survival in vivo. Alvocidib, azacytidine, and decitabine activity were assessed in the MOLM13 xenograft model. FIG. 31A is a plot of tumor volume over time and FIG. 31B is a plot of percent survival over time. Mice were dosed with alvocidib, qdx2, and/or an HMA, qdx3 on a weekly basis. Doses are indicated in mg/kg (mpk).
[…] show results from aggressive daily dosing of alvocidib and decitabine in the MOLM13 model. Tumor bearing mice were treated. Doses and schedule are indicated. FIG. 32A plots tumor volume following treatment and FIG. 32B plots body weight following treatment.

[6] = test system: NOXA expression in MOLM13 xenograft; assay: Western blot for NOXA from MOLM13 xenograft treated with decitabine; assay type: in vivo; conditions: decitabine 1 mg/kg IP, 24 hours
Experimental: as §1

For `Nc1ncn([C@@H]2O[C@H](CO)[C@@H](O)[C@H]2O)c(=O)n1` [azacitidine], the pIC50 (MDS BMMC's) was ~6.00, the “NOXA and MCL-1 protein expression (Western blot) versus DMSO” value [1] was “induced NOXA expression” and the “increase in apoptotic activity versus DMSO” value (CD34+ MDS BMMNC [2]; azacitidine 0.3 μM 24 hours) was 52%. The “increase in apoptotic activity versus DMSO” value (CD34+ MDS BMMNC [2]; azacitidine 0.6 μM 24 hours) was 62%, the “MCL-1 dependency versus DMSO controls” value (MV-4-11 cells) was “sensitized MV4-11 cells to MCL-1 dependent apoptosis” and the “MCL-1 dependency versus DMSO controls” value (MV-4-11 cells; listed as azacytidine) was “increased MCL-1 dependency”. The MCL-1 dependence (MV-4-11 cells; azacitidine 2.5 μM) was 29.6%, the “NOXA expression in AML cell line models” value [3] was “increased” and the “NOXA expression (Western blot), azacitidine” value ([3]; MV-4-11 AML cells, 24 hours) was “dose-dependent increase”. The “priming trend across MDS bone marrow samples” value ([4]; 0.3, 1 and 2.5 μM azacitidine) was “dose-dependent increase in priming”, the percent priming ([4]; Patient 0216's blasts, 1 μM azacitidine) was 115.3% and the percent priming ([4]; Patient 0216's blasts, 2.5 μM azacitidine) was 132.1%. The percent priming ([4]; Patient 0515's blasts, 1 μM azacitidine) was 82.1%, the percent priming ([4]; Patient 0515's blasts, 2.5 μM azacitidine) was 81.6% and the percent priming ([4]; Patient 1060's blasts, 72-hour, 0.3 μM azacitidine) was 45.8%. The percent priming ([4]; Patient 1060's blasts, 72-hour, 1 μM azacitidine) was 60.9%, the “maximum increase in priming” value ([4]; one patient sample) was 35% and the “increase of apoptotic activity versus DMSO” value (CD34+ MDS BMMNC [5]; Patient 0219) was 20%. The “increase of apoptotic activity versus DMSO” value (CD34+ MDS BMMNC [5]; Patient 1115 (high-risk MDS)) was 35%.
With `Nc1ncn([C@H]2C[C@H](O)[C@@H](CO)O2)c(=O)n1` [decitabine] the “tumor growth inhibition (% TGI)” value (MOLM13 xenograft model) was 58.6%, the “NOXA expression (Western blot) in xenograft” value [6] was “increase in NOXA expression” and the “NOXA expression in AML cell line models” value [3] was “increased”. For the same compound, the “NOXA expression (Western blot), decitabine” value ([3]; MV-4-11 AML cells or MOLM13 cells, indicated times) was “time-dependent increase”.
